Measured values as given in patent publication US20260232642A1, “RNA-BINDING MOLECULES WITH A SMALL CORE SCAFFOLD (R-SCORE) AND USES THEREOF” (Max-Planck-Gesellschaft zur Förderung der Wissenschaften …, priority 2022, published 2026).
“Also recorded” adds a separate entry of the source. Read-outs that look alike come from different tables or passages of the source.

What was measured:
Ramos cells = experiment: MTT assay, Ramos; format: cell-based, human; details: 72 h, Burkitt lymphoma cell line, read-out: Cell lines IC50 [μM] Ramos
Protocol: (§1) MAD-MB-231, MCF-7 and JAR cells were cultured in Dulbecco's modified Eagle's (DMEM) medium supplemented with 10% Fetal Bovine Serum (FBS), 100 u/mL penicillin-streptomycin. Jurkat, Molt-4 and Ramos cells were cultured in Roswell Park Memorial Institute (RPMI) 1640 medium with 10% Fetal Bovine Serum (FBS), 100 u/mL penicillin-streptomycin. All cell lines grown in an incubator with humidified 5% CO2 at 37° C.
(§2) Jurkat, Molt-4 and Ramos cells were collected and seeded into 96-well plates at a density of 8000-10000 per well and treated with compounds. MCF-7, MDA-MB-231 and JAR cells were collected and seeded into 96-well plates at a density of 2000-3000 per well and cultured overnight to adherent before treat with compounds. After exposed to increasing concentrations of compounds for 72 h, the cells in each well were mixed with 20 μL of 5 mg/ml MTT (3-(4,5-dimethylthiazol-2-yl)-2,5-diphenyltetrazolium bromide) for 2 h, then add 50 μL of 20% SDS/0.01 M HCl incubated overnight, and detected the absorbance at a wavelength of 570 nm.
(§3) Inhibition rate was calculated using the equation: […]
(§4) The IC50 values were calculated by using GraphPad Prism 9 software fitting to a dose-response inhibition equation.

MDA-MB-231 cells [1] = experiment: MTT assay, MDA-MB-231; format: cell-based, human; details: breast cancer cell line, read-out: Cell lines IC50 [μM] MDA-MB-231
Protocol: as §1, §2, §3, §4

Molt-4 cells = experiment: MTT assay, Molt-4; format: cell-based, human; details: acute leukemia cell line, read-out: Cell lines IC50 [μM] Molt-4
Protocol: as §1, §2, §3, §4

JAR cells = experiment: MTT assay, JAR; format: cell-based, human; details: 72 h, choriocarcinoma cell line, read-out: Cell lines IC50 [μM] JAR
Protocol: as §1, §2, §3, §4

Jurkat cells = experiment: MTT assay, Jurkat; format: cell-based, human; details: 72 h, acute leukemia cell line, read-out: Cell lines IC50 [μM] Jurkat
Protocol: as §1, §2, §3, §4

[2] = test system: precursor microRNA-21 hairpin (pre-miR-21 hp); experiment: Differential scanning fluorimetry (DSF), pre-miR-21 hairpin; format: binding; details: 60 uM compound, 1 μM hairpin in PBS, Tm of compound minus Tm of DMSO control
Protocol: (§5) To measure the binding between compounds and precursor microRNA-21 hairpin (pre-miR-21 hp) or precursor microRNA-17 hairpin (pre-miR-17 hp), DSF was performed as previously described with modification (ACS Chem. Biol. 2017, 12, 2, 435-443). Precursor microRNA hairpin was dissolved in PBS and annealed by briefly heating to 95° C. for 3 min and slowly cooling to rt. Assay was performed in duplicates using white qPCR 8-strips (VWR) with a total volume of 10 μL in PBS. The total reaction consisted of 1 μM precursor microRNA hairpin, 1% test compound (DMSO dilution) and 2×SYBR GreenII (Thermo Fisher Scientific). Compounds were incubated with precursor microRNA hairpin at for 10 min at rt, then SYBR GreenII was added to each well, mixed and incubated 10 min at rt. The strips were spined and loaded to the RT-PCR detection system (BIO-RAD CFX Connect), the fluorescence intensity was obtained every 1° C. for 30 s in the range of 20° C. to 80° C.
(§6) The melting temperature (Tm) was determined by the maximum of the negative of the first derivative of the fluorescence vs temperature melting curves. The ΔTm was calculated by the Tm value of compound subtract the Tm value of the DMSO control.

[3] = test system: precursor microRNA-17 hairpin (pre-miR-17 hp); experiment: Differential scanning fluorimetry (DSF), pre-miR-17 hairpin; format: binding; details: 60 uM compound, 1 μM hairpin in PBS, Tm of compound minus Tm of DMSO control
Protocol: as §5, §6

MCF-7 cells = experiment: MTT assay, MCF-7; format: cell-based, human; details: breast cancer cell line, read-out: Cell lines IC50 [μM] MCF-7
Protocol: as §1, §2, §3, §4

MDA-MB-231 cells [4] = experiment: Colony formation assay; format: cell-based, human; details: for antiproliferation activity against MDA-MB-231 cell line: 6 days, crystal violet, vs DMSO; for antiproliferation activity compared to other selected compounds: MDA-MB-231, ranking among A10, A11, B2, B5, B8, B9; for inhibition of MDA-MB-231 cell proliferation at 10 μM: concentration of 10 μM
Protocol: as §1
MDA-MB-231 cells were collected and seeded into 24-well plates with the density of 1000 cells per well and cultured overnight. The medium was exchanged and supplemented with different compounds and concentrations every three days. 6 days later, cells were washed with PBS and fixed by 4% paraformaldehyde solution. After 15 min fix, the paraformaldehyde solution was washed with PBS and was then stained with 0.1% (w/v) crystal violet. After 15 min, the cells were washed and photographed.

IC50 (Ramos cells; Homo sapiens, Ramos) [µM] | IC50 (MDA-MB-231 cells [1]; Homo sapiens, MDA-MB-231, 72 h) [µM] | IC50 (Molt-4 cells; Homo sapiens, MOLT-4, 72 h) [µM] | IC50 (Jurkat cells; Homo sapiens, Jurkat) [µM] | IC50 (MCF-7 cells; Homo sapiens, MCF7, 72 h) [µM] | IC50 (Ramos cells) [µM] | IC50 (MDA-MB-231 cells [1]; 72 h) [µM] | IC50 (Molt-4 cells; 72 h) [µM] | IC50 (Jurkat cells) [µM] | IC50 (MCF-7 cells; 72 h) [µM] | SMILES | IC50 (JAR cells; Homo sapiens) [µM] | ΔTm (pre-miR-21 hp) @60 uM [° C.] [2] [°C] | ΔTm (pre-miR-17 hp) @60 uM [° C.] [3] [°C] | antiproliferation activity against MDA-MB-231 cell line (MDA-MB-231 cells [4]) | antiproliferation activity compared to other selected compounds (MDA-MB-231 cells [4]) | inhibition of MDA-MB-231 cell proliferation at 10 μM (MDA-MB-231 cells [4]) | IC50 (JAR cells) [µM]
2.8 | 6.95 | 8.42 | 5.9 | 5.61 |  |  |  |  |  | CNc1nc(N2CC(c3ccc(-c4ccc(C(F)(F)F)cc4)cc3)C2C#N)nc2ccccc12 (stereo not drawn) [Compound B5, 1-(4-(methylamino)quinazolin-2-yl)-3-(4′-(trifluoromethyl)-[1,1′-biphenyl]-4-yl) azetidine-2-carbonitrile] | 1.44 | 0 | 0 | can inhibit MDA-MB-231 cells proliferation; also recorded: exhibited antiproliferation activity against MDA-MB-231 cell line in a dose-dependent manner | most potent antiproliferation activity | fully inhibited | 
4.81 | 10 | 2.91 | 2.81 | 5.95 |  |  |  |  |  | N#CC1C(c2ccc(-c3ccc(C(F)(F)F)cc3)cc2)C(CO)N1C(=O)c1ccc(NC(=O)c2sc3ncccc3c2N)cc1 (stereo not drawn) [Compound A1, 1-(1-amino-(3-aminothieno[2,3-b]pyridine-2-carbonyl)phenyl-4-carbonyl)-4-(hydroxymethyl)-3-(4′-(trifluoromethyl)-[1,1′-biphenyl]-4-yl) azetidine-2-carbonitrile] | 2.95 | −2 | −3 |  |  |  | 
8.87 | > 20 | 1.6 | 7.51 | > 20 |  |  |  |  |  | C=CCN1C(C#N)C(c2ccc(-c3ccc(C(F)(F)F)cc3)cc2)C1Cn1cc(-c2ccccn2)nn1 (stereo not drawn) [Compound A10, 1-allyl-4-((4-(pyridin-2-yl)-1H-1,2,3-triazol-1-yl)methyl)-3-(4′-(trifluoromethyl)-[1,1′-biphenyl]-4-yl) azetidine-2-carbonitrile] | > 20 | 0 | 0 | can inhibit MDA-MB-231 cells proliferation; also recorded: exhibited antiproliferation activity against MDA-MB-231 cell line in a dose-dependent manner |  |  | 
 | 14.4 | 7.01 | 6.31 | 9.92 | 7.35 |  |  |  |  | CNc1nc(N2CC(c3ccc(-c4c(C)noc4C)cc3)C2C#N)nc2ccccc12 (stereo not drawn) [Compound B1, 3-(4-(3,5-dimethylisoxazol-4-yl)phenyl)-1-(4-(methylamino)quinazolin-2-yl) azetidine-2-carbonitrile] | 1.74 | 0 | 0 |  |  |  | 
 |  |  |  |  | 5.54 | 4.12 | 4.14 | 3.17 | 1.78 | CNc1nc(N2CC(c3ccc(-c4ccc5nc[nH]c5c4)cc3)C2C#N)nc2ccccc12 (stereo not drawn) [Compound B9, 3-(4-(1H-benzo[d]imidazol-6-yl)phenyl)-1-(4-(methylamino)quinazolin-2-yl) azetidine-2-carbonitrile] |  | −1 | −1 | can inhibit MDA-MB-231 cells proliferation; also recorded: exhibited antiproliferation activity against MDA-MB-231 cell line in a dose-dependent manner |  |  | 1.82
 |  |  |  |  | 3.03 |  | 4.67 | 4.49 |  | CNc1nc(N2CC(c3ccc(-c4c(C)noc4C)cc3)C2C#N)nc2ccccc12 (stereo not drawn) [Compound B2, 3-(4-(3,5-dimethylisoxazol-4-yl)phenyl)-1-(4-(methylamino)quinazolin-2-yl) azetidine-2-carbonitrile] |  |  |  | can inhibit MDA-MB-231 cells proliferation; also recorded: exhibited antiproliferation activity against MDA-MB-231 cell line in a dose-dependent manner | better antiproliferation ability; also recorded: most potent antiproliferation activity | fully inhibited | 
7.03 | 18.6 |  | 3.73 | 6.22 |  |  | 10.8 |  |  | N#CC1C(c2ccc(-c3ccc(C(F)(F)F)cc3)cc2)C(CO)N1C(=O)c1sc2ncccc2c1N (stereo not drawn) [Compound A3, 1-(3-aminothieno[2,3-b]pyridine-2-carbonyl)-4-(hydroxymethyl)-3-(4′-(trifluoromethyl)-[1,1′-biphenyl]-4-yl) azetidine-2-carbonitrile] |  | −6 | −6.5 ± 0.5 |  |  |  | 9.75
 | > 20 |  |  | > 20 | > 20 |  | 11.4 | > 20 |  | CCCN1C(CO)C(c2ccc(-c3ccc4nc[nH]c4c3)cc2)C1CNC(=O)c1sc2ncccc2c1N (stereo not drawn) [Compound A9, N-((3-(4-(1H-benzo[d]imidazol-6-yl)phenyl)-4-(hydroxymethyl)-1-propylazetidin-2-yl)methyl)-3-aminothieno[2,3-b]pyridine-2-carboxamide] | 9.56 | 0 | 0 |  |  |  | 
12.4 | > 20 | 10.6 | 7.3 |  |  |  |  |  | 12.5 | Cc1noc(C)c1-c1ccc(C2CN(C(=O)c3sc4ncccc4c3N)C2C#N)cc1 (stereo not drawn) [Compound B4, 1-(3-aminothieno[2,3-b]pyridine-2-carbonyl)-3-(4-(3,5-dimethylisoxazol-4-yl)phenyl) azetidine-2-carbonitrile] |  | 0 | 0 |  |  |  | 5.92
